This note sets out measurements from patent publication US10722519B2, “Aerosol fluoroquinolone formulations for improved pharmacokinetics” (priority 2008, dated 2020).

The subject of data set [1] is P. aeruginosa ATCC 27853. The data set is described as follows: MIC, broth microdilution. The class given is cell-based. The conditions noted are these: Pseudomonas aeruginosa, ATCC27853, P. aeruginosa ATCC27853. The protocol:
(§1) Bacterial strains MIC testing: P. aeruginosa ATCC 27853 and NH57388A were used in these studies. MICs were determined by a broth microdilution assay according to CLSI reference methods (Methods for dilution of antimicrobial susceptibility test for bacteria that grow aerobically. Seventh Edition: Clinical and Laboratory Standards Institute (2006) M&-A7, incorporated by reference in its entirety). Assays were performed in a final volume of 100 μl. The bacterial suspensions were adjusted to yield a cell density of 5×10^5 CFU/ml. Antibiotics were prepared at a concentration equivalent to twofold the highest desired final concentration in culture medium and were then diluted directly into 96-well microtiter plates. Microtiter plates were incubated for 24 h at 35° C. and were read by using a microtiter plate reader (Molecular Devices) at 600 nm as well as by visual observation by using a microtiter plate reading mirror.
(In general: In broth dilution the organism is exposed to a series of concentrations in liquid medium.)

The test system of data set [2] is P. aeruginosa NH57388A. The data set is described as follows: MIC, broth microdilution. The conditions noted are these: Pseudomonas aeruginosa, NH57388A, P. aeruginosa NIH57388A CF; read-out: MIC. The format is cell-based. The method, then:
as §1

Data set [3] deals with P. aeruginosa ATCC 27853. Briefly: Acute mouse lung infection model. The conditions noted are these: mice, 2 doses over 24 h. The method, then:
Aerosol Administration of antibiotics: Antibiotics were aerosolized using a microspray aerosol device (MicroSprayer Model IA-C, PennCentury, Philadelphia, Pa.) attached to a FMJ-250 High-Pressure Syringe (PennCentury, Philadelphia, Pa.). […] For administration, each mouse was anesthetized (5% isoflurane in oxygen running at 4 L/min) and positioned securely at a 45-50° angle by the upper teeth, the microspray aerosol tip was inserted to the bifurcation and a 50 μl volume was administered.
The bacterial suspensions were adjusted to approximately 1-6×10^5 CFU/ml by correlation of the absorbance at 600 nm with predetermined plate counts. […] On day 4, mice were infected by intratracheal (IT) instillation of 0.05 ml of inoculum using a curved oral gavage tip attached to a 1 ml syringe. […] Antibiotics were aerosolized using a microspray aerosol device. All infections and aerosol treatments were performed under isoflurane anesthesia (5% isoflurane in oxygen running at 4 L/min). An untreated group of mice (n=8) was sacrificed prior to the initiation of treatment to determine baseline bacterial counts. […] The lungs were removed aseptically and homogenized (Pro200 homogenizer, Pro Scientific, Monroe, Conn.) in 1 ml of sterile saline. Serial 10-fold dilutions of the homogenized lung were plated on Mueller-hinton agar (MHA), and colonies counted.
In addition, due to the need for anesthesia for treatment, the maximum number of daily doses was limited to two.

Data set [4] in a line: Standard kill-curve and in vitro hollow fiber assay. The class given is cell-based. The conditions noted are these: high concentrations, 0.018-fold-[…] the MIC evaluated. From the text: Fluoroquinolone efficacy in humans, animals and in vitro models of infection is linked to AUC:MIC ratio and Cmax:MIC ratio.
For data set [5] the following is noted: rat, 10 mg/kg.
A short description of data set [6]: clinical. The conditions noted are these: human, in vivo.

Molecules are shown by their SMILES. ≈ marks a conversion by molar mass, not a printed value.

On to `C[C@H]1COc2c(N3CCN(C)CC3)c(F)cc3c(=O)c(C(=O)O)cn1c23` [Levofloxacin, levofloxacin], for which the MIC in data set [1] turned out to be 1 µg/mL (≈ 2.77 µM); in data set [2], 2 µg/mL (≈ 5.53 µM). Further, the “reductions in lung bacterial counts” value in data set [3] (systemic (IP) 32 mg/kg) amounted to 0.65 log CFU; in data set [3] (systemic (IP) 62.5 mg/kg), 2.7 log CFU. The “time to reach maximum levels of killing” value in data set [4] lay in the range of 10 to 20 min. For the same compound, the “Plasma MAT” value in data set [5] (Sprague-Dawley, in vivo) was determined as 0.01 h. Further, the “Plasma CL/F” value in data set [5] (IV, mean (+/- SD)) is 2.81 (±0.54) L/hr/kg. Also, the AUC(0-inf) in data set [6] (iv, 50 mg, Serum AUC(0-inf)) is 3910 ng·h/mL; in data set [6] (iv, 50 mg, Sputum AUC(0-inf)), 5700 ng·h/mL; in data set [6] (po, 750 mg, Serum AUC(0-inf)), 76600 ng·h/mL; in data set [6] (po, 750 mg, Sputum AUC(0-inf)) it was 93400 ng·h/mL. Further, the Cmax amounted to 2550 ng/mL in data set [6] (iv, 50 mg, Serum Cmax); 1050 ng/mL in data set [6] (iv, 50 mg, Sputum Cmax); 7300 ng/mL in data set [6] (po, 750 mg, Serum Cmax); 8700 ng/mL in data set [6] (po, 750 mg, Sputum Cmax). Further, the half-life in data set [6] (iv, 50 mg, Serum t1/2, IV 50 mg) was 5.89 h; in data set [6] (po, 750 mg), 6.7 h; in data set [6] (po, 750 mg, Serum t1/2, Oral 750 mg, CF patients) it was 7.6 h.

What is called MIC is the least concentration at which growth counts as inhibited. For orientation: AUC(0-inf) means the area under the concentration-time curve extrapolated to infinity. A high value points to high exposure. One may read the Cmax as the maximum level reached in the sampled fluid or tissue. For orientation: half-life means how long it takes for the measured level to halve. Read a high half-life as slow loss.
